As a reminder, the IC50 is the concentration needed to halve the response being measured.

Experiment [1] has as its target T1, PDE4D2 (Homo sapiens, UniProt Q08499).
T1 construct: purchased BPS Bioscience 60345
Briefly: Effect of compounds on PDE4D2 activity (fluorescence polarization kit). The format is biochemical. Particulars: class symbols. In outline: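 PDE4D2 (0.068 ng/well final) pre-incubated 15 min at room temperature with serially diluted compound, then […] FAM-cAMP (final) added for 30 min. Binding Agent added for 1 h before fluorescence polarization readout (Ex 485/Em 520 nm, mP). Inhibition derived against positive and negative control wells; IC50 from concentration-inhibition data.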
For orientation: Fluorescence polarisation rises when a labelled molecule tumbles more slowly, as on binding a larger partner.

The target in experiment [2] is T2, hERG potassium ion channel (Homo sapiens, UniProt Q12809).
T2 construct: expressed in transfected cells
Briefly: Test for hERG potassium ion channel (manual patch-clamp, CHO cells). The experiment is classed as cell-based. Particulars: CHO cells stably expressing hERG, whole cell patch-clamp; read-out: IC50, inhibition of hERG potassium channel current. From the text: Experimental Platform: Electrophysiological Manual Patch-Clamp System
Cell line: Chinese hamster ovary (CHO) cell line stably expressing hERG potassium ion channel
Experimental method: CHO (Chinese Hamster Ovary) cells stably expressing hERG potassium channel were subjected to a whole cell patch-clamp technique to record the hERG potassium channel current at room temperature. The glass microelectrode was made of a glass electrode blank (BF150-86-10, Sutter) by a puller. The tip resistance after filling the liquid in the electrode was about 2-5 MQ. The glass microelectrode can be connected to the patch-clamp amplifier by inserting the glass microelectrode into an amplifier probe. The clamping voltage and data recording were controlled and recorded by the pClamp 10 software through a computer. The sampling frequency was 10 kHz, and the filtering frequency was 2 kHz. After the whole cell records were obtained, the cells were clamped at −80 mV, and the step voltage that induced the hERG potassium current (IhERG) was depolarized from −80 mV to +20 mV for 2 s, then repolarized to −50 mV, and returned to −80 mV after 1 s. This voltage stimulation was given every 10 s, and the administration process was started after the hERG potassium current was confirmed to be stable (at least 1 minute). The compound was administered for at least 1 minute at each test concentration, and at least 2 cells (n: 2) were tested at each concentration.
Data processing: Data analysis processing was carried out by using pClamp 10, GraphPad Prism 5, and Excel software. The degree of inhibition on the hERG potassium current (peak value of hERG tail current induced at −50 mV) at different compound concentrations was calculated by the following formula:
[formula] • where Inhibition % represents the percentage inhibition of the compound on the hERG potassium current, and I and Io represent the amplitude of the hERG potassium current after and before administration, respectively.
Compound IC50 was calculated using GraphPad Prism 5 software by fitting according to the following equation: […]
(In general: Block of hERG is tested as a sign of cardiac risk.)

Experiment [3] in a line: Inhibition of LPS-induced TNF-α release from human peripheral blood mononuclear cells in vitro. As to conditions: PBMC, hPBMC, 100 ng/mL LPS, 4 h; for IC50: class symbols, read-out: Re IC50 (nM) (relative IC50), TNF-α induced by LPS. The format is cell-based. The method, then: Normal human peripheral blood which was anticoagulated (citric acid anticoagulation) was collected, and hPBMCs were prepared by Ficoll-Paque PLUS (Cytiva, Cat #17144002, density 1.077 g/mL). The concentration of hPBMC cells was adjusted to 0.25×10^6 cells/mL with RPMI1640 medium and inoculated into a 96-well plate in an amount of 50000 cells per well. Subsequently, different concentrations of drugs were added for pre-incubation for 1 h (the DMSO final concentration was 0.1%, and the positive and negative control wells had the same volume of RPMI1640 containing 0.1% DMSO). After the pre-incubation was complete, 100 ng/mL LPS (SIGMA, L2630) was added to the compound and positive control wells, and the negative control well had the same volume of RPMI1640 containing 0.1% DMSO. Incubation was carried out for 4 h in an incubator at 37° C. and 5% CO2. The cell supernatant was collected, and the content of TNF-α in the supernatant sample was detected by human TNF-α Elisa quantitative test kit (Sino Biological, Cat #KIT10602). The IC50 value was calculated using GraphPad Prism software.

T2 sequence (Q12809 whole entry): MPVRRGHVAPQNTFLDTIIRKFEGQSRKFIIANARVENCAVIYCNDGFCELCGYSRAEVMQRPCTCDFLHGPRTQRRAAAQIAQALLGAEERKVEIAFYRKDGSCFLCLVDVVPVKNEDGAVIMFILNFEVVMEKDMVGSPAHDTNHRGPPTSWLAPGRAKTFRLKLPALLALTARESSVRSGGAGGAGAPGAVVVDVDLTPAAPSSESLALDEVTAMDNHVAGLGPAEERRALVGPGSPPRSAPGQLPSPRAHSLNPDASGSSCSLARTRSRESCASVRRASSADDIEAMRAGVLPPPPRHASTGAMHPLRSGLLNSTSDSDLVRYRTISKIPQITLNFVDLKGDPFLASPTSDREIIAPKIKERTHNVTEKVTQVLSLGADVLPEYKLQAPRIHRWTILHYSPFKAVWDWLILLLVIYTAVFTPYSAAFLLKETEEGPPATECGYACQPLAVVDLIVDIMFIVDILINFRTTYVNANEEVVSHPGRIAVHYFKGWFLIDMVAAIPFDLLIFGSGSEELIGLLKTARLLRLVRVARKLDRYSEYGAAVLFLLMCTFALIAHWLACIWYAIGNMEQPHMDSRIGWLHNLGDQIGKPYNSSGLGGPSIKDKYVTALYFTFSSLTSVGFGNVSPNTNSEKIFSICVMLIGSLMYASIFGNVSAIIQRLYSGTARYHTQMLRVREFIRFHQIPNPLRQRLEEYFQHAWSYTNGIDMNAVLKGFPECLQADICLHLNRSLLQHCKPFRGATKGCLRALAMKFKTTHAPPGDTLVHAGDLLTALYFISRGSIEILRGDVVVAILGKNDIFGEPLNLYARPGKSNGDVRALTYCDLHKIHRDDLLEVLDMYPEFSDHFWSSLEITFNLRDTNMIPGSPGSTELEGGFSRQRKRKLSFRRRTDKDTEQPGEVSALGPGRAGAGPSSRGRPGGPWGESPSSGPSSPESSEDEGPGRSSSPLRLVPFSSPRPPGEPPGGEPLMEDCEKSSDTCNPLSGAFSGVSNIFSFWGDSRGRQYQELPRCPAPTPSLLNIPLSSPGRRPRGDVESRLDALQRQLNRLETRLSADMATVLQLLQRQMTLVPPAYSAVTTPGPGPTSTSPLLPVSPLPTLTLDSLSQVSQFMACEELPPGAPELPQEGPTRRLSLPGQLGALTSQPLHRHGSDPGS
T1 sequence (Q08499 303-809): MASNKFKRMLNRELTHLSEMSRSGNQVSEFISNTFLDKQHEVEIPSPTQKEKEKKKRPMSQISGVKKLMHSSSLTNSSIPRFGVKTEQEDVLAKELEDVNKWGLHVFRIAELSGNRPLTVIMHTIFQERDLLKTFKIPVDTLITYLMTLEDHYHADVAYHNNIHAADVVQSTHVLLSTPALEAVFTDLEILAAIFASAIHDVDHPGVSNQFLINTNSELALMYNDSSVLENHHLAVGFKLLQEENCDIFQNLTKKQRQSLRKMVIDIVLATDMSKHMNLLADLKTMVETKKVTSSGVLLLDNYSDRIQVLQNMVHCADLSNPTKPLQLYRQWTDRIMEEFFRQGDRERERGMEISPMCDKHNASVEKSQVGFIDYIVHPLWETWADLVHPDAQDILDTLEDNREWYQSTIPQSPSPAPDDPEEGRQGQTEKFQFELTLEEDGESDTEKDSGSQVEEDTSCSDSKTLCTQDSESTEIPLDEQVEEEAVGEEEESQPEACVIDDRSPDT

Consider `C#Cc1cnc(C2=CCN(c3nc4c(c(NC5(CO)CCC5)n3)[S+]([O-])CC4)CC2)nc1` (stereo not shown) [Compound 37], for which the IC50 was < 10 nM in experiment [1], 13.3 µM in experiment [2] and < 10 nM in experiment [3].
Regarding `[O-][S@+]1CCc2nc(N3C[C@H]4CN(c5ccc6c(c5)CC6)C[C@H]4C3)nc(NC3(CO)CCC3)c21` [Compound 31], the IC50 in experiment [1] is < 10 nM; in experiment [2] it was 12.2 µM; in experiment [3], 50 to 100 nM. For the same compound, the Emax in experiment [3] (read-out: Max inhibition (%)) was found to be 75.4%.

These data come from US20250326765A1, “PDE4B INHIBITOR AND USE THEREOF” (XIZANG HAISCO PHARMACEUTICAL CO., LTD., priority 2022, published 2025).
